Experimental data as given in the METLIN SMRT retention time set (Domingo-Almenara et al. 2019).

Assay: gradient 5% acetonitrile 3 min, to 50% in 2 min, to 85% in 15 min, held 3 min, 100 µL/min
Conditions: column: Zorbax Extend-C18 2.1 x 50 mm; eluents: water / acetonitrile, 0.1% formic acid
Procedure, shortened: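 In both positive and negative ionization mode, a quadrupole time-of-flight mass spectrometer coupled to HPLC analyzed pure standards run in mixtures of ~100 molecules. The Zorbax Extend-C18 column (2.1 × 50 mm, 1.8 μm) was operated at 100 μL/min with water and acetonitrile, each containing 0.1% formic acid. The dead volume was 40 μL and the dwell volume 900 μL. Retention time came from adduct peaks that were computationally picked and individually inspected by hand.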

SMILES | RP-LC retention time
Cc1nc(-c2ccc3c(c2)n(CC(=O)N2c4ccccc4CC2C)c(=O)n3C(C)C)no1 (stereo unspecified) | 989 s
O=C(CCC1CCN(c2cc(NC3CC3)ncn2)CC1)NCc1cccc(Cl)c1 | 680 s
Cc1nc(-c2ccc3c(c2)CCN3C(=O)Cc2c[nH]c3ccccc23)cs1 | 950 s
Cc1nc2cc3c(cc2n1CC(=O)NCc1ccc(Cl)cc1)OCCO3 | 652 s
NC(=O)c1c(NC(=O)CSc2ncnc3sc4c(c23)CCC4)sc2c1CCC2 | 1100 s
COc1cc(OC)cc(-c2nc(-c3ccc(-n4ccnc4)nc3)no2)c1 | 769 s
O=C(c1nnc(-c2ccc(S(=O)(=O)N3CCCCC3)cc2)o1)N1CCc2ccccc2C1 | 1080 s
Fc1cc(F)cc(-c2nnc(Cc3nc(-c4cccnc4)no3)o2)c1 | 805 s
Cc1ccc(S(=O)(=O)CCc2noc(C(=O)NCCc3ccc(S(N)(=O)=O)cc3)n2)cc1 | 724 s
Cc1ccc(S(=O)(=O)c2cnc(N3CCN(c4ccccn4)CC3)nc2N)cc1 | 1160 s
Cc1cc(C)cc(N2CCn3c2nc2c3c(=O)n(CC(=O)O)c(=O)n2C)c1 | 784 s
Cc1cc2n(n1)CCC(=O)N2CCCC(=O)NCc1ccc(C)o1 | 644 s
CCOC(=O)c1cc(S(=O)(=O)N2CCCC2C(=O)NC(C)(C)CC)cn1C (stereo unspecified) | 931 s
CC(=O)NCC(=O)N1CCCn2cc(-c3ccccc3F)nc21 | 580 s
CCc1cccc(NC(=O)c2c(C)oc3nc(C)nc(N4CCCC4)c23)c1 | 861 s
CN1C(=O)c2cccn2CC1CNC(=O)c1cccn1C (stereo unspecified) | 636 s
COc1ccc(NC(=O)c2ccccc2NC(=O)C2CCN(C(=O)C(C)(C)C)CC2)cc1 | 868 s
COc1ccc(-n2ncc3c(=O)n(Cc4nc(-c5ccc(C(F)(F)F)cc5)no4)cnc32)cc1 | 1090 s

SMILES | RP-LC retention time
CC(C)CCn1c(SCc2cc(=O)n3ccccc3n2)nc2c(-c3ccccc3)cn(C)c2c1=O | 1200 s
CCCNc1cc(N2CCCC(CCC(=O)Nc3ccc4c(c3)OCO4)C2)ncn1 (stereo unspecified) | 691 s
CCCn1c(C2CCN(C(=O)Nc3ccc(C)cc3)CC2)cc(=O)n2nccc12 | 653 s
CCC(C)C(NC(=O)c1ccc(Cl)cc1)C(=O)Nc1nc2ccccc2[nH]1 (stereo unspecified) | 793 s
O=C(NCc1cccc(Cl)c1)c1c(O)c2cccnc2n(-c2ccccc2)c1=O | 1220 s
COc1cc(N2C(=O)CC(N3CCC(C(N)=O)CC3)C2=O)cc(OC)c1OC (stereo unspecified) | 563 s
COc1ccc(-c2noc(C3CC(=O)N(c4ccc(OC)c(OC)c4)C3)n2)c(OC)c1 (stereo unspecified) | 786 s
CCOC(=O)C1CCCN(c2ncc(S(=O)(=O)c3ccc(C)cc3)c(N)n2)C1 (stereo unspecified) | 983 s
CCOc1ccc(C(O)CN2CCN(c3ccccn3)CC2)cc1Cl (stereo unspecified) | 591 s
Cc1cccc(NC(=O)C(C)n2cnc3nc4c(cc3c2=O)CCCC4)c1C (stereo unspecified) | 765 s
C=C[C@H]1CN2CC[C@H]1C[C@H]2[C@H](O)c1ccnc2ccc(OC)cc12 | 592 s
COCC(=O)N(C1CCOCC1)C1CCN(S(=O)(=O)c2ccc(F)cc2)CC1 | 749 s
Cn1nnnc1C1CCCN(S(=O)(=O)Cc2ccccc2F)C1 (stereo unspecified) | 757 s
Cn1cccc1Cc1nnc(SCC(=O)N2CCCc3ccccc32)n1C | 767 s
COc1ccc(OCC(=O)N2CCN(c3ccc(-c4nc(C)c(C)s4)cn3)CC2)cc1 | 855 s
Cc1ccc(-c2csc(NC(=O)Cn3c(=O)sc4ccccc43)n2)cc1 | 1010 s
CC(C(=O)Nc1cccc(Cl)c1)C1CCN(C(=O)Nc2ccc(F)cc2)CC1 (stereo unspecified) | 933 s
Cc1cccc(CNC(=O)C2=C3CCCN3c3ccccc3S2(=O)=O)c1 | 856 s
